# Results from US8435984B2, “Tertiary amine substituted peptides useful as inhibitors of HCV replication” (Achillion Pharmaceuticals, Inc., priority 2007, dated 2013).
# pEC50: −log10 of the molar value.
# Tested on: HCV replicon
# Test: HCV replicon replication assay (NPT ELISA) in Huh-7 replicon-containing cells
# Format: cell-based, Hepatitis C virus
# Conditions: Hepatitis C virus, 72 h; inhibition of HCV replicon replication, Huh-7 HCV replicon-containing cells, three days
# Procedure: Compounds claimed herein are tested for the ability to inhibit viral replication of the Hepatitis C replicon in cultured cells in which the HCV replicon construct has been incorporated. The HCV replicon system was described by Bartenschlager, et. al (Science, 285, pp. 110-113 (1999)). The replicon system is predictive of in vivo anti-HCV activity; compounds that are active in humans uniformly evidence activity in the replicon assay.
# In this assay HCV replicon containing cells are treated with different concentrations of the test compound to ascertain the ability of the test compound to suppress replication of the HCV replicon. As a positive control, HCV replicon-containing cells are treated with different concentrations of interferon alpha, a known inhibitor of HCV replication. The replicon assay system includes Neomycin Phosphotransferase (NPT) as a component of the replicon itself in order to detect the transcription of replicon gene products in the host cell. Cells in which the HCV replicon is actively replicating have high levels of NPT; the level of NPT is proportional to HCV replication. […] The NPT level of each sample is measured using a captured ELISA.
# The HCV replicon contains, 5′-3′, the HCV-IRES, the neomycin phosphotransferase (neo) gene, the IRES of encephalomyocarditis virus, which directs translation of HCV sequences NS3 to NS5B, and the 3′-NTR. The sequence of the HCV replicon has been deposited in GenBank (Accession no. AJ242652).
# The replicon is transfected into Huh-7 cells using standard methods such as electroporation.
# HCV replicon-containing cells are rinsed with once PBS once; 2 mls of trypsin are then added. Cells are incubated at 37° C. in a 5% CO2 incubator for 3-5 minutes. 10 mls of complete medium is added to stop the reaction. Cells are blown gently, put into a 15 ml tube, and spun at 1200 rpm for four minutes. The trypsin/medium solution is removed and 5 mls of medium (500 ml DMEM (high glucose)) from BRL catalog #12430-054; 50 mls 10% FBS, 5% Geneticin G418 (50 mg/ml, BRL catalog #10131-035), 5 ml MEM non-essential amino acids (100×BRL #11140-050) and 5 ml pen-strep (BRL #15140-148) is added. The cells and media are mixed carefully
# Cells are plated with screening medium (500 ml DMEM (BRL #21063-029), 50 ml FBS (BRL #10082-147) and 5 ml MEM non-essential amino acid (BRL #11140-050) at 6000-7500 cells/100 μl/well of 96 well plate (6-7.5×10^5 cells/10 ml/plate). Plates are placed into 37° C. 5% CO2 incubator overnight. 6D. Assay
# The following morning, drugs (test compounds or interferon alpha) are diluted in 96 well U bottom plates with media or DMSO/media, depending on the final concentration chosen for screening. Generally for 6 concentrations of each test compounds ranging from 10 micromolar to 0.03 micromolar are applied. 100 μl of the test compound dilution is placed in wells of the 96 well plate containing the HCV replicon cells. Media without drug is added to some wells as a negative controls. DMSO is known to affect cell growth. Therefore, if drugs diluted in DMSO are used, all wells, including negative control (media only) and positive control (interferon alpha) wells, must contain the same concentration of DMSO, for single dose screening. The plates are incubated at 37° C. in a humidified 5% CO2 environment for three days.
# On day four, the NTPII assay is quantitated. The medium is poured from the plates and the plates are washed once in 200 μl of PBS. The PBS is then decanted and the plates tapped in a paper towel to remove any remaining PBS. Cells are fixed in situ with 100 id/well of pre-cooled (−20° C.) methanol:acetone (1:1) and the plates are placed at −20° C. for 30 minutes.
# The fixing solution is poured from the plates and the plates allowed to air-dry completely (approximately one hour). The appearance of the dried cell layer is recorded and the density of the cells in the toxic wells is scored with the naked eye. […]
row,SMILES,pEC50
1,"CCCC(NC(=O)C1C2CCCC2CN1C(=O)C(C)N1CCCCC1)C(=O)C(=O)NC1CC1 (centres unmarked) [Compound 35, N-(1-(cyclopropylamino)-1,2-dioxohexan-3-yl)-2-(2-(piperidin-1-yl)propanoyl)octahydrocyclopenta [c]pyrrole-1-carboxamide]",> 4.00
2,"CCCC(NC(=O)C1C2CCCC2CN1C(=O)C(c1ccccc1)N1CCCCC1)C(=O)C(=O)NC1CC1 (centres unmarked) [Compound 36, N-(1-(cyclopropylamino)-1,2-dioxohexan-3-yl)-2-(2-phenyl-2-(piperidin-1-yl)acetyl)octahydrocyclopenta[c] pyrrole-1-carboxamide]",> 4.00
3,"CCCC(NC(=O)C1C2CCCC2CN1C(=O)C(C)N1CCCCCC1)C(=O)C(=O)NC1CC1 (centres unmarked) [Compound 37, 2-(2-(azepan-1-yl)propanoyl)-N-(1-(cyclopropylamino)-1,2-dioxohexan-3-yl)octahydrocyclopenta[c]pyrrole-1-carboxamide]",> 4.00
4,"CCCC(NC(=O)C1C2CCCC2CN1C(=O)[C@@H](NC(=O)OC(C)(C)C)C(C)(C)C)C(=O)C(=O)NC1CC1 (stereo partly drawn) [Compound 39, tert-butyl(2S)-1-(1-(1-(cyclopropylamino)-1,2-dioxohexan-3-ylcarbamoyl)hexahydrocyclopenta[c]pyrrol-2(1H)-yl)-3,3-dimethyl-1-oxobutan-2-ylcarbamate]",> 4.00
5,"CCCC(NC(=O)C1C2CCCC2CN1C(=O)C(C)N1CCCC1)C(=O)C(=O)NC1CC1 (centres unmarked) [Compound 40, N-(1-(cyclopropylamino)-1,2-dioxohexan-3-yl)-2-(2-(pyrrolidin-1-yl)propanoyl)octahydrocyclopenta [c]pyrrole-1-carboxamide]",> 4.00
6,"CCCC(NC(=O)C1C2CCCC2CN1C(=O)[C@@H](C)N1CCCCC1)C(=O)C(=O)NC1CC1 (stereo partly drawn) [Compound 42, N-(1-(cyclopropylamino)-1,2-dioxohexan-3-yl)-2-((R)-2-(piperidin-1-yl)propanoyl)octahydrocyclopenta [c]pyrrole-1-carboxamide]",< 4.00
7,"CCCC(NC(=O)C1C2CCCC2CN1C(=O)[C@@H](C)N1CCCC1)C(=O)C(=O)NC1CC1 (stereo partly drawn) [Compound 43, N-(1-(cyclopropylamino)-1,2-dioxohexan-3-yl)-2-((R)-2-(pyrrolidin-1-yl)propanoyl)octahydrocyclopenta [c]pyrrole-1-carboxamide]",< 4.00
8,"CCCC(NC(=O)[C@@H]1C[C@@H](OC(=O)N2CCc3ccccc3C2)CN1C(=O)C(C)N1CCCCC1)C(=O)C(=O)NC1CC1 (stereo partly drawn) [Compound 44, (3R,5S)-5-(1-(cyclopropylamino)-1,2-dioxohexan-3-ylcarbamoyl)-1-(2-(piperidin-1-yl)propanoyl)pyrrolidin-3-yl 3,4-dihydroisoquinoline-2(1H)-carboxylate]",> 4.00
9,"CCCC(NC(=O)C1C[C@@H](OC(=O)N2CCc3ccccc3C2)CN1C(=O)C(C)N1CCCC1)C(=O)C(=O)NC1CC1 (stereo partly drawn) [Compound 45, (3R,5S)-S-(1-(cyclopropylamino)-1,2-dioxohexan-3-ylcarbamoyl)-1-(2-(pyrrolidin-l-yl)propanoyl)pyrrolidin-3-yl 3,4-dihydroisoquinoline-2(1H)-carboxylate]",< 4.00
10,"CCCC(NC(=O)C1C2CCCC2CN1C(=O)[C@H](C)N1CCCCC1)C(=O)C(=O)NC1CC1 (stereo partly drawn) [Compound 46, N-(1-(cyclopropylamino)-1,2-dioxohexan-3-yl)-2-((S)-2-(piperidin-1-yl)propanoyl)octahydrocyclopenta [c]pyrrole-1-carboxamide]",> 4.00
11,"CCCC(NC(=O)C1C2CCCC2CN1C(=O)[C@@H](N1CCCCC1)C(C)(C)C)C(=O)C(=O)NC1CC1 (stereo partly drawn) [Compound 47, N-(1-(cyclopropylamino)-1,2-dioxohexan-3-yl)-2-((S)-3,3-dimethyl-2-(piperidin-1-yl)butanoyl)octahydrocyclopenta [c]pyrrole-1-carboxamide]",> 4.00
12,"CCCC(NC(=O)C1C2CCCC2CN1C(=O)[C@H](C(C)C)N1CCCCC1)C(=O)C(=O)NC1CC1 (stereo partly drawn) [Compound 49, N-(1-(cyclopropylamino)-1,2-dioxohexan-3-yl)-2-((S)-3-mcthyl-2-(piperidin-1 - yl)bulanoyl)octahydrocyclopenta [c]pyrrole-1-carboxamide]",> 4.00
13,"C=CC1CC1(NC(=O)[C@@H]1C[C@@H](Oc2cc(-c3ccccc3)nc3cc(OC)ccc23)CN1C(=O)[C@@H](N1CCCCC1)C(C)(C)C)C(=O)OCC (stereo partly drawn) [Compound 50, ethyl 1-((2S,4R)-1-((S)-3,3-dimethyl-2-(piperidin-1-yl)butanoyl)-4-(7-methoxy-2-phenylquinolin-4-yloxy)pyrrolidine-2-carboxamido)-2-vinylcyclopropanecarboxylate]",> 4.00
14,"C=CC1CC1(NC(=O)[C@@H]1C[C@@H](Oc2cc(-c3ccccc3)nc3cc(OC)ccc23)CN1C(=O)[C@H](c1ccccc1)N1CCCCC1)C(=O)OCC (stereo partly drawn) [Compound 51, ethyl 1-((2S,4R)-4-(7-methoxy-2-phenylquinolin-4-yloxy)-1-((S)-2-phenyl-2-(piperidin-1-yl)acetyl)pyrrolidine-2-carboxamido)-2-vinylcyclopropanecarboxylate]",> 4.00
15,"C=CC1CC1(NC(=O)[C@@H]1C[C@@H](Oc2cc(-c3ccccc3)nc3cc(OC)ccc23)CN1C(=O)[C@H](C(C)C)N1CCCCC1)C(=O)OCC (stereo partly drawn) [Compound 52, ethyl 1-((2S,4R)-4-(7-methoxy-2-phenylquinolin-4-yloxy)-1-((S)-3-methyl-2-(piperidin-1-yl)butanoyl)pyrrolidine-2-carboxamido)-2-vinylcyclopropanecarboxylate]",> 4.00
16,"C=CC1CC1(NC(=O)[C@@H]1C[C@@H](Oc2cc(-c3ccccc3)nc3cc(OC)ccc23)CN1C(=O)[C@H](C1CCCCC1)N1CCCCC1)C(=O)OCC (stereo partly drawn) [Compound 53, ethyl 1-((2S,4R)-1-((S)-2-cyclohexyl-2-(piperidin-1-yl)acetyl)-4-(7-methoxy-2-phenylquinolin-4-yloxy)pyrrolidine-2-carboxamido)-2-vinylcyclopropanecarboxylate]",> 4.00
17,"C=CC1CC1(NC(=O)[C@@H]1C[C@@H](Oc2cc(-c3ccccc3)nc3cc(OC)ccc23)CN1C(=O)[C@H](C)N1CCCCC1)C(=O)OCC (stereo partly drawn) [Compound 54, ethyl 1-((2S,4R)-4-(7-methoxy-2-phenylquinolin-4-yloxy)-1-((S)-2-(piperidin-1-yl)propanoyl)pyrrolidine-2-carboxamido)-2-vinylcyclopropanecarboxylate]",> 4.00
18,"C=CC1CC1(NC(=O)[C@@H]1C[C@@H](Oc2cc(-c3ccccc3)nc3cc(OC)ccc23)CN1C(=O)[C@@H](N1CCCCC1)C(C)(C)C)C(=O)O (stereo partly drawn) [Compound 55, 1-((2S,4R)-1-((S)-3,3-dimethyl-2-(piperidin-1-yl)butanoyl)-4-(7-methoxy-2-phenylquinolin-4-yloxy)pyrrolidine-2-carboxamido)-2-vinylcyclopropanecarboxylic acid]",> 4.00
19,"C=CC1CC1(NC(=O)[C@@H]1C[C@@H](Oc2cc(-c3ccccc3)nc3cc(OC)ccc23)CN1C(=O)[C@H](c1ccccc1)N1CCCCC1)C(=O)O (stereo partly drawn) [Compound 56, 1-((2S,4R)-4-(7-methoxy-2-phenylquinolin-4-yloxy)-1-((S)-2-phenyl-2-(piperidin-1-yl)acetyl)pyrrolidine-2-carboxamido)-2-vinylcyclopropanecarboxylic acid]",< 4.00

# Same assay, conditions: inhibition of HCV replicon replication, Huh-7 HCV replicon-containing cells, three days
row,SMILES,pEC50
1,"CCCC(NC(=O)C1C2CCCC2CN1C(=O)[C@@H](N1CCCCC1)C(C)(C)C)C(=O)C(=O)NC1CC1 (stereo partly drawn) [Compound 48, N-(1-(cyclopropylamino)-1,2-dioxohexan-3-yl)-2-((S)-3,3-dimethyl-2-(piperidin-1-yl)butanoyl)octahydrocyclopenta [c]pyrrole-1-carboxamide]",> 4.00
